Patent US11845724B2, “USP30 inhibitors and uses thereof” (Vincere Biosciences, Inc., priority 2019, dated 2023)
Read-outs that look alike come from different tables or passages of the source.

Columns and labels:
[1] = target: recombinant USP30 (amino acids 57-517 of the human sequence) (Homo sapiens (Human), UniProt Q70CQ3); test: In vitro USP30 biochemical assay (Ubiquitin-Rhodamine)
[2] = target: T1, USP30 (Homo sapiens (Human), UniProt Q70CQ3); test: Dundee MALDI-TOF mass spectrometry assay (% DUB activity remaining at 1 μM); type: biochemical; conditions: % DUB activity remaining at compound concentration of 1 μM; avg; read-out: Dundee % Activity at 1 μM (avg in vitro MS assay)
Procedure: Compounds were tested in a MALDI-TOF assay based on the paper by Ritorto et al. (Ritorto et al. Screening of DUB activity and specificity by MALDI-TOF mass spectrometry. Nat. Commun. 5:4763).
USP30 (25 ng/μl) tested against K48-linked diubiquitin (5.6 μM). USP30 was diluted in a buffer containing 40 mM Tris, 0.01% BSA, 1 mM DTT and K48 in 40 mM Tris, 0.01% BSA.
The compounds were pre-incubated with the USP30 for 5 mins at room temp before the K48 dimer addition. The assay mixture was then incubated for 45 mins at room temp. The assay was stopped by the addition of TFA to a final concentration of 2% (v/v).
Acidified samples of the DUB assays were mixed with 0.5 mM 15N-ubiquitin and then with one part of 2% (v/v) TFA and one part of 2,5 DHAP matrix solution (7.6 mg of 2,5 DHAP in […] ethanol and […] of an aqueous 12 mg ml 1 diammonium hydrogen citrate). Then 250 nl of these solutions were spotted onto an MTP AnchorChip 1,536 TF and this is analysed on the Bruker rapifleX MALDI-TOF.
Table 22 presents the Dundee MALDI-TOF values expressed as % DUB activity remaining at a compound concentration of 1 μM.

[3] = target: T1, USP30; test: Dundee MALDI-TOF mass spectrometry assay (IC50); type: biochemical; conditions: USP30 25 ng/μl, K48-linked diubiquitin 5.6 μM
Summary of the method: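 USP30 (25 ng/μl) preincubated with compound 5 min at RT in Tris/BSA/DTT buffer, then K48-linked diubiquitin (5.6 μM) added for 45 min at RT. Stopped with 2% TFA; cleavage quantified by MALDI-TOF mass spectrometry to give IC50.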

[4] = USP30 IC50 μM (avg), Ubiquitin-Rhodamine substrate 25 nM, 1.5 nM recombinant USP30
[5] = avg, read-out: Dundee IC50 μM (avg in vitro MS assay)
[6] = Dundee IC50 μM (avg in vitro MS assay)

T1 sequence (Q70CQ3 whole entry): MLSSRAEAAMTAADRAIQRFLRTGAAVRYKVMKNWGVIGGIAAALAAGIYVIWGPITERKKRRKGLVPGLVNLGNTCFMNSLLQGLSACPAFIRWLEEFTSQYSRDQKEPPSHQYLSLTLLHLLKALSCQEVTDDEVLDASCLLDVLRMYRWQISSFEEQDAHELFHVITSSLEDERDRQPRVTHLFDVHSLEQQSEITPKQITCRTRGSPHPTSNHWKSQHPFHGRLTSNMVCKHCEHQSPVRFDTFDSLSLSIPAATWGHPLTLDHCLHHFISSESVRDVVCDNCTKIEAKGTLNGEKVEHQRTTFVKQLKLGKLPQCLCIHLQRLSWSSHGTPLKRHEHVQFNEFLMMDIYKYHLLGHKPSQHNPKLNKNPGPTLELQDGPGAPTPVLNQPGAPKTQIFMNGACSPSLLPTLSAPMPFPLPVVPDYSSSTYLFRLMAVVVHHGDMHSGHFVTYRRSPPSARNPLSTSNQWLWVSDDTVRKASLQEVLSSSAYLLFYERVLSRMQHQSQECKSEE
Sequence of recombinant USP30 (amino acids 57-517 of the human sequence) (Q70CQ3 57-517): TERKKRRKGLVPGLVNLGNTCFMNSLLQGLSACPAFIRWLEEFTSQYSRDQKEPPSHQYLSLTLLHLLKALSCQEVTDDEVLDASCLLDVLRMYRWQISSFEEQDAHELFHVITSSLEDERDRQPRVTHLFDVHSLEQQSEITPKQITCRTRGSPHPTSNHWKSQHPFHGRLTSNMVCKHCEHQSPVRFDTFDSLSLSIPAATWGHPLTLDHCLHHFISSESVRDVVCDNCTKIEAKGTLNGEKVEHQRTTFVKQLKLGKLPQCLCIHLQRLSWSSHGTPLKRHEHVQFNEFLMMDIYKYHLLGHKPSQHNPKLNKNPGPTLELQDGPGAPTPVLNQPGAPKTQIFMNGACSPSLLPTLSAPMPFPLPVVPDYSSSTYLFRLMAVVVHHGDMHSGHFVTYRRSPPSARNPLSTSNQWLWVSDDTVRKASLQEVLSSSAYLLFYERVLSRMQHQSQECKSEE

Row | SMILES | IC50 [1, 4] | activity at 1 µM [2] | IC50 [3, 5] | IC50 [3, 6] | IC50 ([1]; read-out: USP30 IC50 μM (avg), Ubiquitin-Rhodamine substrate 25 nM, 1.5 nM recombinant USP30)
1 | C[C@@H](NS(=O)(=O)c1ccc(NC(=O)[C@H](Cc2ccccc2)NC(=O)c2ccc(F)cc2)cc1)C(F)(F)F [Compound I-26, 4-fluoro-N-((S)-1-oxo-3-phenyl-1-(4-(N-((R)-1,1,1-trifluoropropan-2-yl)sulfamoyl)phenylamino)propan-2-yl)benzamide] | 0.05 to 1 µM | 0 to 25% | < 0.05 µM |  | 
2 | CCNS(=O)(=O)c1ccc(NC(=O)C2(NC(=O)c3ccccc3)CCc3ccccc3C2)cc1 (centres unmarked) [Compound I-47, 2-benzamido-N-(4-(N-ethylsulfamoyl)phenyl)-1,2,3,4-tetrahydronaphthalene-2-carboxamide] |  | > 75% | > 1 µM |  | 
3 | CC(C)(C)NS(=O)(=O)c1ccc(NC(=O)C2Cc3cccnc3N2C(=O)c2ccc(F)cc2)cc1 (centres unmarked) [Compound I-57, N-(4-(N-tert-butylsulfamoyl)phenyl)-1-(4-fluorobenzoyl)-2,3-dihydro-1H-pyrrolo[2,3-b]pyridine-2-carboxamide] |  | > 75% |  | > 1 µM | 
4 | CC(C)(C)NS(=O)(=O)c1ccc(NC(=O)C2(NC(=O)c3ccc(F)cc3)CC2c2ccccc2)cc1 (racemic) [Compound I-83, racemic-N-((E)-1-(4-(N-tert-butylsulfamoyl)phenylcarbamoyl)-2-phenylcyclopropyl)-4-fluorobenzamide] |  | > 75% | > 1 µM |  | 
5 | CC(C)(C)NC(c1ccc(NC(=O)[C@H](Cc2ccccc2)NC(=O)c2ccc(F)cc2)cc1)C(F)(F)F (stereo partly drawn) [Compound I-18, N-((2S)-1-(4-(1-(tert-butylamino)-2,2,2-trifluoroethyl)phenylamino)-1-oxo-3-phenylpropan-2-yl)-4-fluorobenzamide] |  | 50 to 75% |  | > 10 µM | > 10 µM
6 | CC(C)(C)N[S+]([O-])c1ccc(NC(=O)[C@H](Cc2ccccc2)NC(=O)c2ccc(F)cc2)cc1 (stereo partly drawn) [Compound I-15, N-((2S)-1-(4-(N-tert-Butylsulfinamoyl)phenylamino)-1-oxo-3-phenylpropan-2-yl)-4-fluorobenzamide] |  | 25 to 50% | 0.05 to 1 µM |  | 
7 | CC(C)(C)NC(=O)c1ccc(NC(=O)[C@H](Cc2ccccc2)NC(=O)c2ccc(F)cc2)cc1 [Compound I-29, (S)-N-tert-butyl-4-(2-(4-fluorobenzamido)-3-phenylpropanamido)benzamide] |  | > 75% |  | > 1 µM | 
8 | CC(C)(C)NS(=O)(=O)c1cccc(NC(=O)[C@H](Cc2ccccc2)NC(=O)c2ccc(F)cc2)c1 [Compound I-68, (S)-N-(1-(3-(N-tert-butylsulfamoyl)phenylamino)-1-oxo-3-phenylpropan-2-yl)-4-fluorobenzamide] |  | > 75% |  | > 1 µM | 
9 | C[C@H](NS(=O)(=O)c1ccc(NC(=O)[C@H](Cc2ccccc2)NC(=O)c2ccc(F)cc2)cc1)C1CC1 [Compound I-27, N-((S)-1-(4-(N-((S)-1-cyclopropylethyl)sulfamoyl)phenylamino)-1-oxo-3-phenylpropan-2-yl)-4-fluorobenzamide] |  | 0 to 25% | < 0.05 µM |  | 
10 | CC(C)(C)NS(=O)(=O)c1ccc(NC(=O)C2(NC(=O)c3ccc(F)cc3)CC2c2ccccc2)cc1 (racemic) [Compound I-82, racemic-N-(Z)-(1-(4-(N-tert-butylsulfamoyl)phenylcarbamoyl)-2-phenylcyclopropyl)-4-fluorobenzamide] |  | > 75% |  | > 1 µM | 
11 | CC(C)(C)N=S(C)(=O)c1ccc(NC(=O)[C@H](Cc2ccccc2)NC(=O)c2ccc(F)cc2)cc1 (stereo partly drawn) [Compound I-17, N-((2S)-1-((4-(N-(tert-butyl)-S-methylsulfonimidoyl)phenyl)amino)-1-oxo-3-phenylpropan-2-yl)-4-fluorobenzamide] |  | > 75% |  | > 1 µM | 

More lines, main results first:

Row | IC50 [1, 4] | activity at 1 µM [2] | IC50 [3, 5] | SMILES | IC50 [3, 6] | IC50 ([1]; read-out: USP30 IC50 μM (avg), Ubiquitin-Rhodamine substrate 25 nM, 1.5 nM recombinant USP30)
12 |  | > 75% | > 1 µM | CN(C(=O)[C@H](Cc1ccccc1)NC(=O)c1ccc(F)cc1)c1ccc(S(=O)(=O)NC(C)(C)C)cc1 [Compound I-36, (S)-N-(1-((4-(N-tert-butylsulfamoyl)phenyl)(methyl)amino)-1-oxo-3-phenylpropan-2-yl)-4-fluorobenzamide] |  | 
13 |  | > 75% | > 1 µM | CC(C)(C)NS(=O)(=O)c1ccc(NC[C@H](Cc2ccccc2)NC(=O)c2ccc(F)cc2)cc1 [Compound I-44, (S)-N-(1-(4-(N-tert-butylsulfamoyl)phenylamino)-3-phenylpropan-2-yl)-4-fluorobenzamide] |  | 
14 | 1 to 10 µM | 50 to 75% | 1 to 10 µM | CC(C)(C)NS(=O)(=O)c1ccc(NC(=O)C2Cc3cnccc3CN2C(=O)c2ccc(F)cc2)cc1 (centres unmarked) [Compound I-50, N-(4-(N-tert-butylsulfamoyl)phenyl)-2-(4-fluorobenzoyl)-1,2,3,4-tetrahydro-2,6-naphthyridine-3-carboxamide] |  | 
15 |  | 0 to 25% | < 0.05 µM | CC[C@H](C)NS(=O)(=O)c1ccc(NC(=O)[C@H](Cc2ccccc2)NC(=O)c2ccc(F)cc2)cc1 [Compound I-28, N-((S)-1-((4-(N-((S)-sec-butyl)sulfamoyl)phenyl)amino)-1-oxo-3-phenylpropan-2-yl)-4-fluorobenzamide] |  | 
16 |  | > 75% | > 1 µM | CC(C)(C)NS(=O)(=O)c1ccc(OC[C@H](Cc2ccccc2)NC(=O)c2ccc(F)cc2)cc1 [Compound I-45, (S)-N-(1-(4-(N-tert-butylsulfamoyl)phenoxy)-3-phenylpropan-2-yl)-4-fluorobenzamide] |  | 
17 |  | > 75% | > 1 µM | CC(C)(C)NS(=O)(=O)c1ccc(NC(=O)[C@H](Cc2ccccc2)OCc2ccc(F)cc2)cc1 [Compound I-46, (S)-N-(4-(N-tert-butylsulfamoyl)phenyl)-2-(4-fluorobenzyloxy)-3-phenylpropanamide] |  | 
18 |  | > 75% | > 1 µM | CC(C)(C)NS(=O)(=O)c1ccc(NC(=O)C2(NC(=O)c3ccccc3)CCc3ccccc3C2)cc1 (centres unmarked) [Compound I-48, 2-benzamido-N-(4-(N-tert-butylsulfamoyl)phenyl)-1,2,3,4-tetrahydronaphthalene-2-carboxamide] |  | 
19 |  | 0 to 25% | 0.05 to 1 µM | O=C(N[C@@H](Cc1cccnc1)C(=O)Nc1ccc(S(=O)(=O)NC2COC2)cc1)c1ccc(F)cc1 [Compound I-66, (S)-4-fluoro-N-(1-(4-(N-oxetan-3-ylsulfamoyl)phenylamino)-1-oxo-3-(pyridin-3-yl)propan-2-yl)benzamide] |  | 
20 |  | > 75% | 1 to 10 µM | CCNS(=O)(=O)c1ccc(NC(=O)C2Cc3ccccc3CN2C(=O)c2ccc(F)cc2)cc1 (centres unmarked) [Compound I-49, N-(4-(N-ethylsulfamoyl)phenyl)-2-(4-fluorobenzoyl)-1,2,3,4-tetrahydroisoquinoline-3-carboxamide] |  | 
21 |  | > 75% | 1 to 10 µM | CC(C)(C)NS(=O)(=O)c1ccc(NC[C@@H](O)[C@H](Cc2ccccc2)NC(=O)c2ccc(F)cc2)cc1 [Compound I-42, N-((2S,3R)-4-(4-(N-tert-butylsulfamoyl)phenylamino)-3-hydroxy-1-phenylbutan-2-yl)-4-fluorobenzamide] |  | 
22 | 1 to 10 µM | > 75% |  | CC(C)(C)NS(=O)(=O)c1ccc(NC(=O)C2Cc3cccnc3CN2C(=O)c2ccc(F)cc2)cc1 (centres unmarked) [Compound I-59, N-(4-(N-tert-butylsulfamoyl)phenyl)-7-(4-fluorobenzoyl)-5,6,7,8-tetrahydro-1,7-naphthyridine-6-carboxamide] |  | 
